Results published in ChEMBL document CHEMBL1145254, “5-Lipoxygenase inhibitors: convenient synthesis of 4-[3-(4-heterocyclylphenylthio)phenyl]-3,4,5,6-tetrahydro-2H-pyran-4-carboxamide analogues” (Bioorg Med Chem Lett, 2005).

What was measured:
[1] = biological target: T1, Polyunsaturated fatty acid 5-lipoxygenase (Homo sapiens, UniProt P09917); assay: (§1) Inhibition of 5-lipoxygenase mediated LTB4 synthesis in A-23187 simulated human whole blood; assay type: functional, tissue-based
T1 sequence (P09917 whole entry): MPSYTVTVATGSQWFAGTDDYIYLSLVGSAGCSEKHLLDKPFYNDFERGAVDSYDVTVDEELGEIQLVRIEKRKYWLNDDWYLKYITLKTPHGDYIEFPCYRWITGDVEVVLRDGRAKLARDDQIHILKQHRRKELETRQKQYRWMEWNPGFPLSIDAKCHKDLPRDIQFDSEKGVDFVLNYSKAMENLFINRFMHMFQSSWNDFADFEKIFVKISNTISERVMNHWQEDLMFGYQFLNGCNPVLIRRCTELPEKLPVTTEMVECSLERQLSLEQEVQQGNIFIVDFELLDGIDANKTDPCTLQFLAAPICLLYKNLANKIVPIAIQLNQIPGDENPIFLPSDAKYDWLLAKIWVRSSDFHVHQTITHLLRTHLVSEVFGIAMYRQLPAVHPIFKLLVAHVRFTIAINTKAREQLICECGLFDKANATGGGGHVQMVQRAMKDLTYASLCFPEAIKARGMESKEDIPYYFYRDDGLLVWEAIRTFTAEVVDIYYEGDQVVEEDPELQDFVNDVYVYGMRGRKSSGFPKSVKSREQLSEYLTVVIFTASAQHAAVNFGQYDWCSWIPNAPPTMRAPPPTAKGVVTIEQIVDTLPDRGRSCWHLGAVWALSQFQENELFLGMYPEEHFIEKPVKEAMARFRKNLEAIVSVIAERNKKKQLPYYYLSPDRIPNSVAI

[2] = biological target: T2, Polyunsaturated fatty acid 5-lipoxygenase (Mus musculus) (UniProt P48999); assay: Inhibition of 5-lipoxygenase-mediated platelet activating factor induced thrombosis in male mice; assay type: functional
T2 sequence (whole entry): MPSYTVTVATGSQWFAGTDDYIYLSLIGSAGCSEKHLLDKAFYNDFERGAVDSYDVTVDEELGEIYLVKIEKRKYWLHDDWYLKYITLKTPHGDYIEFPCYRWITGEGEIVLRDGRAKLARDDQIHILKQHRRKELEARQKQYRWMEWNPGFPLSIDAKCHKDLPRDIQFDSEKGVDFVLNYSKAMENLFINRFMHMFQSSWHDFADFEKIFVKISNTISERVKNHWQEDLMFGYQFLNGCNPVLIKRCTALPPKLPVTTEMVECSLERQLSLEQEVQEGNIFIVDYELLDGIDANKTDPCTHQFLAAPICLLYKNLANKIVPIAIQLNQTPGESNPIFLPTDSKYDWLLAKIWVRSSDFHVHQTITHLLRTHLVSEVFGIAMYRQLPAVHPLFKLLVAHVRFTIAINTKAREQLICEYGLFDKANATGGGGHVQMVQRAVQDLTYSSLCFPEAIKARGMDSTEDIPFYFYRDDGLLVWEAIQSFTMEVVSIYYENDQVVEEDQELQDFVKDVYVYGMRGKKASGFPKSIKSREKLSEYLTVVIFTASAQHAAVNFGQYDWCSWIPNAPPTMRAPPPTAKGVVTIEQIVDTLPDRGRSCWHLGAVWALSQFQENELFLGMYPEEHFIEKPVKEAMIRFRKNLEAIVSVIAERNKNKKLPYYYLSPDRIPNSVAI

[3] = biological target: T3, Polyunsaturated fatty acid 5-lipoxygenase (Homo sapiens) (UniProt P09917); conditions: Blood, 1 uM
T3 sequence (whole entry): T1 sequence (P09917 whole entry)

[4] = biological target: T3, Polyunsaturated fatty acid 5-lipoxygenase (Homo sapiens); assay: as §1; assay type: functional, tissue-based; conditions: concentration not given here
[5] = biological target: T3, Polyunsaturated fatty acid 5-lipoxygenase (Homo sapiens); assay: Inhibition of 5-lipoxygenase mediated LTB4 synthesis in A-23187 simulated human whole blood at 1 uM concentration; assay type: functional, tissue-based

SMILES | IC50 [1] [nM] | ED50 [2] [mg/kg] | inhibition [3] [%] | inhibition [4] [%] | inhibition [5] [%]
NC(=O)C1(c2cccc(Sc3ccc(Cn4cccc4)cc3)c2)CCOCC1 | 270 | 3 | – | – | –
Cc1nccn1-c1ccc(Sc2cccc(C3(C(N)=O)CC4CCC(C3)O4)c2)cc1 (stereo unspecified) | > 1000 | – | -7 | – | –
Cc1cc(C)n(-c2ccc(Sc3cccc(C4(C(N)=O)CCOCC4)c3)cc2)n1 | > 1000 | – | – | -1 | –
NC(=O)C1(c2cccc(Sc3ccc(-n4cnnc4)cc3)c2)CCOCC1 | > 1000 | – | – | – | 1
Cc1nccn1-c1ccc(Sc2cccc([C@]3(C(N)=O)CC4CC[C@H](C3)O4)c2)cc1 | 830 | 7 | – | – | –
Cc1nccn1Cc1ccc(Sc2cccc(C3(C(N)=O)CCOCC3)c2)cc1 | 140 | > 20 | – | – | –
Cc1nccn1-c1ccc(Sc2cccc(C3(C(N)=O)CCOCC3)c2)cc1 | 230 | 3.7 | – | – | –
CO/N=C/C1(c2cccc(Sc3ccc(-n4ccnc4C)cc3)c2)CCOCC1 | 150 | 2 | – | – | –
